According to ChEMBL document CHEMBL5465560, “Selectivity Literature for EUbOPEN Chemogenomic Library” (2024):

How the values were obtained:
[1] = molecular target: Cyclin-dependent kinase 18 (Homo sapiens) (UniProt Q07002); test: Selectivity interaction (KinomeScan (DiscoverX)) EUB0001079a CDK18; settings: at 1 µM
[2] = molecular target: CREB-binding protein (Homo sapiens, UniProt Q92793); test: Selectivity interaction (Human bromodomain panel (DSF assay)) EUB0000233b CREBBP
[3] = molecular target: Serine/threonine-protein kinase Nek4 (Homo sapiens) (UniProt P51957); test: Selectivity interaction (Kinase panel (Eurofins)) EUB0001564a NEK4; settings: at 1 µM
Chain of Serine/threonine-protein kinase Nek4 (Homo sapiens) (P51957 whole entry, looked up): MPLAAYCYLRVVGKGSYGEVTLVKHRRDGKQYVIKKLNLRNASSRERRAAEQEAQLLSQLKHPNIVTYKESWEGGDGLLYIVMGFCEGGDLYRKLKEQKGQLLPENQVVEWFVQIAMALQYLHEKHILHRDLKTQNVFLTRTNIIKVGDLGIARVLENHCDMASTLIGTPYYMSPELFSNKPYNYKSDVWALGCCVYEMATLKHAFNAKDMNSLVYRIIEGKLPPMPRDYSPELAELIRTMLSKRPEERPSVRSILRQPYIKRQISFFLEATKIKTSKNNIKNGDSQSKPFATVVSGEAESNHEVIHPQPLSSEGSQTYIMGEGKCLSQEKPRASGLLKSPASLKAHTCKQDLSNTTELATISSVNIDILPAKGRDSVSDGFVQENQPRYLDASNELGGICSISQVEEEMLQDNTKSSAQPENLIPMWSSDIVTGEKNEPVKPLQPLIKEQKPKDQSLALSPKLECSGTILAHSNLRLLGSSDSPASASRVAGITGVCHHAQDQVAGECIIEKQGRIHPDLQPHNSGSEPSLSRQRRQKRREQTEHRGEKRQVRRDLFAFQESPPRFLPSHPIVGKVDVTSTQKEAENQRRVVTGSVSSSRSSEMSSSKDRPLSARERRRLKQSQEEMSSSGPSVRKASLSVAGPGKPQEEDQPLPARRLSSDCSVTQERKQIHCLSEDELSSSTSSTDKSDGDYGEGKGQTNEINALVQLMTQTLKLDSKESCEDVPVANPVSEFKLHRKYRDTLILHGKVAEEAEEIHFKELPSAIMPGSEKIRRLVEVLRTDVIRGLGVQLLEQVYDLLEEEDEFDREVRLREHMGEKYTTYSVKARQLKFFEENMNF

[4] = molecular target: Bone morphogenetic protein receptor type-1A (Homo sapiens, UniProt P36894); settings: at 10 µM
Chain of Bone morphogenetic protein receptor type-1A (P36894 whole entry): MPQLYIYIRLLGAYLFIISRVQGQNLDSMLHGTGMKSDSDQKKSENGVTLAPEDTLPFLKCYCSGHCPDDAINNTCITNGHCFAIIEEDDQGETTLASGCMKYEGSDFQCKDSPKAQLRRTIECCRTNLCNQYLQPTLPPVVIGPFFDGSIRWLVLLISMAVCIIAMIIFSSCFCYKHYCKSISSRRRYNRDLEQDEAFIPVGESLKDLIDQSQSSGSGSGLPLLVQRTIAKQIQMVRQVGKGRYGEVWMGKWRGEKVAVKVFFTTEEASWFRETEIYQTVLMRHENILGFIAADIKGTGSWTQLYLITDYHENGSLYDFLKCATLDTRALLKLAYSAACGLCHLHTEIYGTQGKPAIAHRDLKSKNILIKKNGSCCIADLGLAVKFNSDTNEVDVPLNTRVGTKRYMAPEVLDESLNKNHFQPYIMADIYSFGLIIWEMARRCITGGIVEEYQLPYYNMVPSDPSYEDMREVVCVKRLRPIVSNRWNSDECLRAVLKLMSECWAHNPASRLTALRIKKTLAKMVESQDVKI

[5] = molecular target: 5'-AMP-activated protein kinase catalytic subunit alpha-2 (Homo sapiens) (UniProt P54646); test: Selectivity interaction (ActivX KiNativ screen (kinase selectivity in THP-1 cell lysates)) EUB0000639a PRKAA2; assay type: subcellular; settings: lysate, at 5 µM
Chain of 5'-AMP-activated protein kinase catalytic subunit alpha-2 (Homo sapiens) (P54646 whole entry, looked up): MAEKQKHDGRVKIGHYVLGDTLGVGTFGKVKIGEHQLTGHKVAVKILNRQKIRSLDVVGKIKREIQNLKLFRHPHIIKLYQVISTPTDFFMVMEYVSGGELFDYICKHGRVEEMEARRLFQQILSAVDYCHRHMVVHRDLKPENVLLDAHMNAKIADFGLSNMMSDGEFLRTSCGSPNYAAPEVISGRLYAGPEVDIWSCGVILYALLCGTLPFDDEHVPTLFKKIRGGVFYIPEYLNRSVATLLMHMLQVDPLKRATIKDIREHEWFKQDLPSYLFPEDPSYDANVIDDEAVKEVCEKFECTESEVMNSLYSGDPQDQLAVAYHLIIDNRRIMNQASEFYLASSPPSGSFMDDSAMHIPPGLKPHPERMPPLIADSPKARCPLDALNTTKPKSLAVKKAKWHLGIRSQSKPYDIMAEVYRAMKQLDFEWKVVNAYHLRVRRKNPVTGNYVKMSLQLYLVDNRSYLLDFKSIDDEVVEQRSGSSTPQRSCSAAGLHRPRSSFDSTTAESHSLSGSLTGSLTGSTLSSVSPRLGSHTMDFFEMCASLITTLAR

[6] = molecular target: T1, Serine/threonine-protein kinase 3 (Homo sapiens) (UniProt Q13188); test: Selectivity interaction (ActivX KiNativ screen (kinase selectivity in THP-1 cell lysates)) EUB0000639a STK3; assay type: subcellular; settings: lysate, at 0.04 µM
T1 sequence (whole entry): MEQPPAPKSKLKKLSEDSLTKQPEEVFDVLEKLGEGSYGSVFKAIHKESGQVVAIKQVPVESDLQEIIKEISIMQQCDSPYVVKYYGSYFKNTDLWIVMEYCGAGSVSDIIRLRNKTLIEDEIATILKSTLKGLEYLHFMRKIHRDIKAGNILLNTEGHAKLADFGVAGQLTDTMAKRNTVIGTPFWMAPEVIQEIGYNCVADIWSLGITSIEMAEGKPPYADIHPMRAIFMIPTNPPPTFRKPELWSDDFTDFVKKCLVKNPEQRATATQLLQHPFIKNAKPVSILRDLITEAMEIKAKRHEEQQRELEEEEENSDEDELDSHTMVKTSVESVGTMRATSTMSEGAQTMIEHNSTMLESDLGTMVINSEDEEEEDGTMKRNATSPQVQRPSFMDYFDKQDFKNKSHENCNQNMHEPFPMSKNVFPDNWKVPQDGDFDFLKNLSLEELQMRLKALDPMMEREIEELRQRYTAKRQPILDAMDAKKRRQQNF

[7] = molecular target: Dual specificity tyrosine-phosphorylation-regulated kinase 1A (Homo sapiens, UniProt Q13627); test: Selectivity interaction (Ambit KINOMEscan and KiNATiv profiling in Jurkat cells) EUB0000090b DYRK1A; assay type: cell-based; settings: at 1 µM
[8] = molecular target: Calcium/calmodulin-dependent protein kinase type 1 (Homo sapiens) (UniProt Q14012); test: Selectivity interaction (Ambit KINOMEscan and KiNATiv profiling in Jurkat cells) EUB0000090b CAMK1; assay type: cell-based; settings: at 1 µM
Chain of Calcium/calmodulin-dependent protein kinase type 1 (Homo sapiens) (Q14012 whole entry, looked up): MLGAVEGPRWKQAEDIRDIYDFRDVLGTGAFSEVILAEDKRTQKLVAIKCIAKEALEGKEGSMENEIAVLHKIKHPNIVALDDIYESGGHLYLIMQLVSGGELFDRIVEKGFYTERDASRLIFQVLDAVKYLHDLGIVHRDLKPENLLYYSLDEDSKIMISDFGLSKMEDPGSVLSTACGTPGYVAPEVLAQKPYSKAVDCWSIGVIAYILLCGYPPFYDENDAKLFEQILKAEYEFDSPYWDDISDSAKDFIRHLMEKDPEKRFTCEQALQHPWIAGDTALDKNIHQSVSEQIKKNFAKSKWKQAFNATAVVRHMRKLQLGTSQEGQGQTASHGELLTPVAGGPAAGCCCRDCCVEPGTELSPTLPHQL

[9] = molecular target: Aurora kinase B (Homo sapiens, UniProt Q96GD4); test: Selectivity interaction (KinomeScan (DiscoverX)) EUB0000618a AURKB; settings: at 10 µM
Chain of Aurora kinase B (Q96GD4 whole entry): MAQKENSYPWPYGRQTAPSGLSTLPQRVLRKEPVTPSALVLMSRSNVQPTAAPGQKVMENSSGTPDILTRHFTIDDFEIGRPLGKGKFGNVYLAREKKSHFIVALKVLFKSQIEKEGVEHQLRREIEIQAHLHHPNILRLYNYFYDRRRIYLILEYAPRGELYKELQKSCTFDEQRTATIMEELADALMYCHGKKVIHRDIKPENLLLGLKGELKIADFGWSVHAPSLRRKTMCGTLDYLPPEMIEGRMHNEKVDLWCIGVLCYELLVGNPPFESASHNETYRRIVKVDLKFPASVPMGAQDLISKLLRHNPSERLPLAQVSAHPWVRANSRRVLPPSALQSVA

[10] = molecular target: Activin receptor type-2A (Homo sapiens) (UniProt P27037); test: Selectivity interaction (KinomeScan (DiscoverX)) EUB0000655a ACVR2A; settings: at 10 µM
Chain of Activin receptor type-2A (Homo sapiens) (P27037 whole entry): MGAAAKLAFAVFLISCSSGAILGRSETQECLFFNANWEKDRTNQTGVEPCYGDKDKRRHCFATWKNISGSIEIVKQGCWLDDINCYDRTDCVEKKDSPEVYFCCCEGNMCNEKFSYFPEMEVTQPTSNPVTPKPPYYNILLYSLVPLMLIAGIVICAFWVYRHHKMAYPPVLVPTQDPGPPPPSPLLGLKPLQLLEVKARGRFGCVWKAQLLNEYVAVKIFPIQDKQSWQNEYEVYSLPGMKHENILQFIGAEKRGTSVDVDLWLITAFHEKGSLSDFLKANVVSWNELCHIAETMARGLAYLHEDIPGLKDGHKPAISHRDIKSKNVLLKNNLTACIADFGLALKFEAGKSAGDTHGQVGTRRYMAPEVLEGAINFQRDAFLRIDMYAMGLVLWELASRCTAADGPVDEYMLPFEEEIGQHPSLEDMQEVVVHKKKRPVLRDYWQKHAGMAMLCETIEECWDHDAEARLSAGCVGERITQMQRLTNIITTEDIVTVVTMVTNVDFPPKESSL

[11] = molecular target: T2, Serine/threonine-protein kinase TNNI3K (Homo sapiens) (UniProt Q59H18); test: Selectivity interaction (KinomeScan (DiscoverX)) EUB0000655a TNNI3K; settings: at 10 µM
T2 sequence (whole entry): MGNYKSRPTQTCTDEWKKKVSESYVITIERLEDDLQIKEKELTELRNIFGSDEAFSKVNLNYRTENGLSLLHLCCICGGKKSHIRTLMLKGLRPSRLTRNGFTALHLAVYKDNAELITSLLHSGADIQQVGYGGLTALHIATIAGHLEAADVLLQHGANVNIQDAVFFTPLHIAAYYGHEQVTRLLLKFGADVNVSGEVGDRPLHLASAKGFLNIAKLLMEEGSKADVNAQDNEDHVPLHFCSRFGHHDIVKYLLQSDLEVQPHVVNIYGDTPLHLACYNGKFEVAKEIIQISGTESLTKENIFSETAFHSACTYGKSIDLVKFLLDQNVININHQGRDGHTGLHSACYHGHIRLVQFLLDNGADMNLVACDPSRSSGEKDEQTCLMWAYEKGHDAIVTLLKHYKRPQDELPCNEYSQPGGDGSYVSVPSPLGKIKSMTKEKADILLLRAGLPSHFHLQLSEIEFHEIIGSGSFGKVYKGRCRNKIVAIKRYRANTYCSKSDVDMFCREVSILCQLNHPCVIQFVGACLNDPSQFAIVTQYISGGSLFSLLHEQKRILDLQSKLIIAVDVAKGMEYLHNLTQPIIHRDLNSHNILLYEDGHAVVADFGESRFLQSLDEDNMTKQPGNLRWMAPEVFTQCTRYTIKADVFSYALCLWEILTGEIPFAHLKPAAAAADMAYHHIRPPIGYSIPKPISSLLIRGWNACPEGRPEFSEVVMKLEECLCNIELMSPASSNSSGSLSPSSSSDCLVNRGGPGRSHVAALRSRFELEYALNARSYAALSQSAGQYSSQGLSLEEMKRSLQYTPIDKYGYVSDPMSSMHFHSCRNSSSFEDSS

[12] = molecular target: Proto-oncogene tyrosine-protein kinase Src (Homo sapiens, UniProt P12931); test: Selectivity interaction (SelectScreen profiling (Invitrogen)) EUB0000607a SRC; settings: at 2 µM
Chain of Proto-oncogene tyrosine-protein kinase Src (P12931 2-536 limits assumed): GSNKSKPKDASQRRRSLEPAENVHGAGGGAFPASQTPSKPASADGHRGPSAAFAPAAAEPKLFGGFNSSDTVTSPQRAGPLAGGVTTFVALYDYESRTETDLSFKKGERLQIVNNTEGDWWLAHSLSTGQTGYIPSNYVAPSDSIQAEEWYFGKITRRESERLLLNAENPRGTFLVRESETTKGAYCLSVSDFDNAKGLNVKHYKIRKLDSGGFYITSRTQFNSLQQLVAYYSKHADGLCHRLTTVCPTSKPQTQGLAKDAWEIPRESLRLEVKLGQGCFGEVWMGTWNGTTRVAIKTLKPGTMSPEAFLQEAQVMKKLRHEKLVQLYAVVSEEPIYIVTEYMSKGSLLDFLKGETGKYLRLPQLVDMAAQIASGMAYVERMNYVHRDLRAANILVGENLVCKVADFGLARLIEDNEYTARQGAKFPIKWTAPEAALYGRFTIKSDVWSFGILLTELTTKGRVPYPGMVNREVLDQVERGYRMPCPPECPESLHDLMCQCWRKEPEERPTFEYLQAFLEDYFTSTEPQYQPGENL

[13] = molecular target: Tyrosine-protein kinase Lyn (Homo sapiens, UniProt P07948); test: Selectivity interaction (SelectScreen profiling (Invitrogen)) EUB0000607a LYN; settings: at 2 µM
Chain of Tyrosine-protein kinase Lyn (P07948 2-512 limits assumed): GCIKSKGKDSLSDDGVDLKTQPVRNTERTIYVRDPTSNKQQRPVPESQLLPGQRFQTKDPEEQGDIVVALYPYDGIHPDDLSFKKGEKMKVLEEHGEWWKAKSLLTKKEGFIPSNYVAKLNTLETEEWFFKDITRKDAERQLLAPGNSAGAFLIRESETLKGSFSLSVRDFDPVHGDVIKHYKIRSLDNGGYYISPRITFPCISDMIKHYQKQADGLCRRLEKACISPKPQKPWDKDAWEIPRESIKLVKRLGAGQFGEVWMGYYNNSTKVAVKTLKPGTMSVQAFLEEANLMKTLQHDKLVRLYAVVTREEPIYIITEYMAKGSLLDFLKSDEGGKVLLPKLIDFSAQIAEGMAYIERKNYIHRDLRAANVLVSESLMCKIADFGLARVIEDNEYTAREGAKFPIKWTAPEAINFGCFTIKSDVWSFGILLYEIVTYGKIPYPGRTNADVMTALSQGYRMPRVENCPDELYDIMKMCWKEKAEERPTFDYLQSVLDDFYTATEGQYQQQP

[14] = molecular target: Vasopressin V1a receptor (Homo sapiens) (UniProt P37288); test: Selectivity interaction (Panel of kinases, GPCRs, ion channels and transporters (enzymatic assay)) EUB0000223bCl AVPR1A
[15] = molecular target: Tyrosine-protein kinase SYK (Homo sapiens, UniProt P43405); test: Selectivity interaction (Kinase panel (Z-LYTE Assay)) EUB0001632a SYK; settings: at 10 µM

Chain of Cyclin-dependent kinase 18 (Homo sapiens) (Q07002 whole entry): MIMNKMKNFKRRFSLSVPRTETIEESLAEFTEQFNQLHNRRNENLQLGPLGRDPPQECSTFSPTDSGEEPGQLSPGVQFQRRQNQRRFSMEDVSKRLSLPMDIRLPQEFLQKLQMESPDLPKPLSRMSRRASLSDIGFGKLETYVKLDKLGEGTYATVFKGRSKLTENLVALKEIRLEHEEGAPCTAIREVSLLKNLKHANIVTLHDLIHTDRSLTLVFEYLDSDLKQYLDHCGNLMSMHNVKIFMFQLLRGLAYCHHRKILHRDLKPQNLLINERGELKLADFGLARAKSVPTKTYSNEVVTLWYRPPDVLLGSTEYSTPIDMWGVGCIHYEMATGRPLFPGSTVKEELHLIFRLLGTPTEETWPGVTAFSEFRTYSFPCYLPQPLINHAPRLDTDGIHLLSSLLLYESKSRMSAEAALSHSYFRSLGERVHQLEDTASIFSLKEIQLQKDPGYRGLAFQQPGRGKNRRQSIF

Nc1cnc(N2CCc3cc(S(=O)(=O)Nc4c(F)cc(Cl)cc4F)cc(N4CCCC4=O)c32)nc1 [TP-020n]
% of control [1]: 100%

CN(C)CCCOc1ccc(-c2cc(NCCCn3cccn3)nc(S(C)(=O)=O)n2)cc1
dTM [2]: < 2 K

CC[C@@H](Nc1c(C#N)c(-c2ccc(-c3cccc(C)c3F)cc2)nc2cnccc12)C(=O)O [BAY-091]
% of inhibition [3]: 32.1%

CCN(CC)CCCCNc1ncc2cc(-c3cc(OC)cc(OC)c3)c(NC(=O)NC(C)(C)C)nc2n1
% of control [4]: 100%

CC[C@@H]1[C@H](F)C(=O)N[C@@H]1COc1nccc2cc(C(N)=O)c(OC)cc12 [ZIMLOVISERTIB]
% of inhibition [5]: 18.6% | % of inhibition [6]: 2.2%

CN(C)C/C=C/C(=O)Nc1ccc(C(=O)N2CCCC(Nc3ncc(Cl)c(-c4c[nH]c5ccccc45)n3)C2)cc1 (stereo not given)
% of control [7]: 30% | % of control [8]: 93%

O[C@H]1CC[C@H](Nc2ncc3nc(Nc4c(F)cc(F)cc4F)n([C@H]4CCOC4)c3n2)CC1
% of control [9]: 100%

CN(C)CCOc1ccc(-c2nc(-c3ccncc3)c(-c3ccc4c(c3)CC/C4=N\O)[nH]2)cc1
% of control [10]: 100% | % of control [11]: 76%

CNC(=O)Nc1ccc(-c2nc(N3CC4CCC(C3)O4)c3cnn(C4CCC5(CC4)OCCO5)c3n2)cc1
% of inhibition [12]: 7% | % of inhibition [13]: 5%

COc1cc(C(=O)N2CC[C@@H](O)[C@@H](N)C2)cc2nc(-c3cc4ccccc4n3CC3CC3)n(C)c12
pXC50 [14]: 4.6 M

Cn1cc(-n2cnc3c(NCc4nc5cc(Cl)c(Cl)cc5[nH]4)nc(N4CCOCC4)nc32)cn1
% of control [15]: 3.71%
